In patent US8952024B2, “Herbicidal pyrimidone derivatives” (E I du Pont de Nemours and Company, priority 2009, dated 2015):

Assays:
Experiment in all cases: Test B pre-/postemergence plant response
Format in all cases: in vivo
[1] = tested on: large crabgrass (Digitaria sanguinalis); conditions: for Plant response rating, Crabgrass, Large: Postemergence
How it was run: (§1)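 Steps: sow seed in loam–sand soil and spray preemergence, or grow plants in peat-based medium to 1–4 leaves (2–18 cm) and spray postemergence; formulation is non-phytotoxic solvent plus surfactant; hold in greenhouse 13–15 days; score visually vs controls, 0 = no effect, 100 = complete control.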

[2] = tested on: velvetleaf (Abutilon theophrasti); conditions: for Plant response rating, Velvetleaf: Postemergence
How it was run: as §1

[3] = tested on: goosegrass (Eleusine indica); conditions: for Plant response rating, Goosegrass: Postemergence
How it was run: as §1

[4] = tested on: Italian ryegrass (Lolium multiflorum); conditions: for Plant response rating, Ryegrass, Italian: Postemergence
How it was run: as §1

[5] = tested on: downy bromegrass (Bromus tectorum); conditions: for Bromegrass, Downy plant response rating (0 to 100 scale): 62 g ai/ha, postemergence, 0 is no effect, 100 is complete control; for Plant response rating, Bromegrass, Downy: Postemergence
How it was run: as §1

[6] = tested on: pigweed (Amaranthus retroflexus); conditions: for Plant response rating, Pigweed: Postemergence
How it was run: as §1

[7] = tested on: yellow nutsedge (Cyperus esculentus); conditions: for Plant response rating, Nutsedge, Yellow: Postemergence
How it was run: as §1

[8] = tested on: wheat (Triticum aestivum); conditions: for Plant response rating, Wheat: Postemergence
How it was run: as §1

[9] = tested on: Surinam grass (Brachiaria decumbens); conditions: for Plant response rating, Surinam Grass: Postemergence
How it was run: as §1

[10] = tested on: ragweed (common ragweed, Ambrosia elatior); conditions: for Plant response rating, Ragweed: Postemergence
How it was run: as §1

[11] = tested on: lambsquarters (Chenopodium album); conditions: for Plant response rating, Lambsquarters: Postemergence
How it was run: as §1

[12] = tested on: green foxtail (Setaria viridis); conditions: for Plant response rating, Foxtail, Green: Postemergence
How it was run: as §1

[13] = tested on: woolly cupgrass (Eriochloa villosa); conditions: for Plant response rating, Cupgrass, Woolly: Postemergence
How it was run: as §1

[14] = 62 g ai/ha, postemergence, 0 is no effect, 100 is complete control, 13 to 15 days
[15] = 31 g ai/ha, 0 to 100 scale (0 no effect, 100 complete control)
[16] = 125 g ai/ha, scale 0 to 100 (0 no effect, 100 complete control)
[17] = 250 g ai/ha, scale 0 to 100 (0 no effect, 100 complete control), 13 to 15 days

Compound: CCCn1c(-c2cccc(C(F)(F)F)c2)ncc(C(=O)C2=C(O)CCCC2=O)c1=O [Compound 155]
- Crabgrass, Large plant response rating (0 to 100 scale) [1, 14]: 75
- Plant response rating, Crabgrass, Large [1, 15]: 60
- Plant response rating, Crabgrass, Large [1, 16]: 80
- Plant response rating, Crabgrass, Large [1, 17]: 90
- Velvetleaf plant response rating (0 to 100 scale) [2, 14]: 100
- Plant response rating, Velvetleaf [2, 15]: 100
- Plant response rating, Velvetleaf [2, 16]: 100
- Plant response rating, Velvetleaf [2, 17]: 100
- Goosegrass plant response rating (0 to 100 scale) [3, 14]: 80
- Plant response rating, Goosegrass [3, 15]: 65
- Plant response rating, Goosegrass [3, 16]: 85
- Plant response rating, Goosegrass [3, 17]: 98
- Ryegrass, Italian plant response rating (0 to 100 scale) [4, 14]: 30
- Plant response rating, Ryegrass, Italian [4, 15]: 5
- Plant response rating, Ryegrass, Italian [4, 16]: 40
- Plant response rating, Ryegrass, Italian [4, 17]: 60
- Bromegrass, Downy plant response rating (0 to 100 scale) ([5]; 13 to 15 days): 30
- Plant response rating, Bromegrass, Downy [5, 15]: 5
- Plant response rating, Bromegrass, Downy [5, 16]: 35
- Plant response rating, Bromegrass, Downy [5, 17]: 50
- Pigweed plant response rating (0 to 100 scale) [6, 14]: 100
- Plant response rating, Pigweed [6, 15]: 98
- Plant response rating, Pigweed [6, 16]: 100
- Plant response rating, Pigweed [6, 17]: 100
- Nutsedge, Yellow plant response rating (0 to 100 scale) [7, 14]: 45
- Plant response rating, Nutsedge, Yellow [7, 15]: 20
- Plant response rating, Nutsedge, Yellow [7, 16]: 70
- Plant response rating, Nutsedge, Yellow [7, 17]: 75
- Wheat plant response rating (0 to 100 scale) [8, 14]: 30
- Plant response rating, Wheat [8, 15]: 15
- Plant response rating, Wheat [8, 16]: 40
- Plant response rating, Wheat [8, 17]: 70
- Surinam Grass plant response rating (0 to 100 scale) [9, 14]: 55
- Plant response rating, Surinam Grass [9, 15]: 40
- Plant response rating, Surinam Grass [9, 16]: 65
- Plant response rating, Surinam Grass [9, 17]: 75
- Ragweed plant response rating (0 to 100 scale) [10, 14]: 70
- Plant response rating, Ragweed [10, 15]: 45
- Plant response rating, Ragweed [10, 16]: 90
- Plant response rating, Ragweed [10, 17]: 95
- Lambsquarters plant response rating (0 to 100 scale) [11, 14]: 100
- Plant response rating, Lambsquarters [11, 15]: 98
- Plant response rating, Lambsquarters [11, 16]: 100
- Plant response rating, Lambsquarters [11, 17]: 100
- Foxtail, Green plant response rating (0 to 100 scale) [12, 14]: 50
- Plant response rating, Foxtail, Green [12, 15]: 25
- Plant response rating, Foxtail, Green [12, 16]: 80
- Plant response rating, Foxtail, Green [12, 17]: 80
- Cupgrass, Woolly plant response rating (0 to 100 scale) [13, 14]: 45
- Plant response rating, Cupgrass, Woolly [13, 15]: 20
- Plant response rating, Cupgrass, Woolly [13, 16]: 65
- Plant response rating, Cupgrass, Woolly [13, 17]: 75

Compound: CCCn1c(-c2cc(C)cc(C)c2)ncc(C(=O)C2=C(O)CCCC2=O)c1=O [Compound 156]
- Plant response rating, Crabgrass, Large [1, 15]: 45
- Plant response rating, Crabgrass, Large [1, 16]: 65
- Plant response rating, Crabgrass, Large [1, 17]: 80
- Plant response rating, Velvetleaf [2, 15]: 60
- Plant response rating, Velvetleaf [2, 16]: 95
- Plant response rating, Velvetleaf [2, 17]: 100
- Plant response rating, Goosegrass [3, 15]: 65
- Plant response rating, Goosegrass [3, 16]: 70
- Plant response rating, Goosegrass [3, 17]: 80
- Plant response rating, Ryegrass, Italian [4, 15]: 0
- Plant response rating, Ryegrass, Italian [4, 16]: 20
- Plant response rating, Ryegrass, Italian [4, 17]: 40
- Bromegrass, Downy plant response rating (0 to 100 scale) ([5]; 13 to 15 days): 10
- Plant response rating, Bromegrass, Downy [5, 15]: 10
- Plant response rating, Bromegrass, Downy [5, 16]: 35
- Plant response rating, Bromegrass, Downy [5, 17]: 40
- Plant response rating, Pigweed [6, 15]: 60
- Plant response rating, Pigweed [6, 16]: 98
- Plant response rating, Pigweed [6, 17]: 100
- Plant response rating, Nutsedge, Yellow [7, 15]: 45
- Plant response rating, Nutsedge, Yellow [7, 16]: 70
- Plant response rating, Nutsedge, Yellow [7, 17]: 75
- Plant response rating, Wheat [8, 15]: 15
- Plant response rating, Wheat [8, 16]: 35
- Plant response rating, Wheat [8, 17]: 45
- Plant response rating, Surinam Grass [9, 15]: 40
- Plant response rating, Surinam Grass [9, 16]: 60
- Plant response rating, Surinam Grass [9, 17]: 70
- Plant response rating, Ragweed [10, 15]: 65
- Plant response rating, Ragweed [10, 16]: 75
- Plant response rating, Ragweed [10, 17]: 90
- Plant response rating, Lambsquarters [11, 15]: 80
- Plant response rating, Lambsquarters [11, 16]: 95
- Plant response rating, Lambsquarters [11, 17]: 100
- Plant response rating, Foxtail, Green [12, 15]: 45
- Plant response rating, Foxtail, Green [12, 16]: 85
- Plant response rating, Foxtail, Green [12, 17]: 85
- Plant response rating, Cupgrass, Woolly [13, 15]: 40
- Plant response rating, Cupgrass, Woolly [13, 16]: 55
- Plant response rating, Cupgrass, Woolly [13, 17]: 65
